Test [1] addresses Neuropeptide Y receptor type 1 (Homo sapiens) (UniProt P25929). Briefly: hNPY1 Cerep panel.
Test [2] has as its target Histamine H1 receptor (Homo sapiens) (UniProt P35367). Nature of the test: hH1 Cerep panel.
The species entered for a further test is Rattus norvegicus. Briefly: rCaCH (D888) Cerep panel.
In test [3] the target is Somatostatin receptor (Mus musculus) (UniProt P30935+O08858+P30875+P30873+P49660). Nature of the test: mSST Cerep panel. The test is classed as protein assay.
Sequence of Somatostatin receptor (Mus musculus) (P30935 whole entry): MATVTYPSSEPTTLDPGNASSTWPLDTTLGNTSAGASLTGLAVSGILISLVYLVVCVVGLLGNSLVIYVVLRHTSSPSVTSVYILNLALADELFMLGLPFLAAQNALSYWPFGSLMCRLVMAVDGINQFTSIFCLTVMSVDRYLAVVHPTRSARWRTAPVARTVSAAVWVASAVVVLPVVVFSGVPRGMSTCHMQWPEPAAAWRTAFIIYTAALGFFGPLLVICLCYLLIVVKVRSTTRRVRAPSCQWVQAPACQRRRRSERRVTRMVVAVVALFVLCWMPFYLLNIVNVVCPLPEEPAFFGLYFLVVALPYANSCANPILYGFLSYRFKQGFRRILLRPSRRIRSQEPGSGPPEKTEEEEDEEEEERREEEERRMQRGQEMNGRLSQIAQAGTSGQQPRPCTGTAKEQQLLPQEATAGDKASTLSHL
Sequence of Somatostatin receptor (Mus musculus) (O08858 whole entry): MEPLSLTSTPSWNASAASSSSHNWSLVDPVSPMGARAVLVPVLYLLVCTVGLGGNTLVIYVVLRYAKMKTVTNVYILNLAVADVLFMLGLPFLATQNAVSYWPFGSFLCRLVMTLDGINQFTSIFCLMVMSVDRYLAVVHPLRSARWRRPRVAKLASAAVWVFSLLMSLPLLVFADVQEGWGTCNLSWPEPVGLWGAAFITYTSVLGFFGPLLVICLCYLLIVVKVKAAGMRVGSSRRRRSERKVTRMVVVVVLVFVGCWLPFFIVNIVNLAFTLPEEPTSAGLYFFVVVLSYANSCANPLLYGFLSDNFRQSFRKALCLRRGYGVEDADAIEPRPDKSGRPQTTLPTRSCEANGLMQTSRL
Sequence of Somatostatin receptor (Mus musculus) (P30875 whole entry): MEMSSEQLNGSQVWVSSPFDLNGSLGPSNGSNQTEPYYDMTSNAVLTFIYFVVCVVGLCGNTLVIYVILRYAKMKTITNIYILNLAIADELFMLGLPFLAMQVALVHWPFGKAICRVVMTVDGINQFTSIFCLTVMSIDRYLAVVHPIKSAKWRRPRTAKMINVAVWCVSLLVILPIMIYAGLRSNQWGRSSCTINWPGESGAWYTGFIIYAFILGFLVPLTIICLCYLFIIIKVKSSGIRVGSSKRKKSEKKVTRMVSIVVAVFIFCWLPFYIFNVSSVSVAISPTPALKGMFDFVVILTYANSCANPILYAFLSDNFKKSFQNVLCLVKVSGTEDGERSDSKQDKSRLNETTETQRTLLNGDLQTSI
Sequence of Somatostatin receptor (Mus musculus) (P30873 whole entry): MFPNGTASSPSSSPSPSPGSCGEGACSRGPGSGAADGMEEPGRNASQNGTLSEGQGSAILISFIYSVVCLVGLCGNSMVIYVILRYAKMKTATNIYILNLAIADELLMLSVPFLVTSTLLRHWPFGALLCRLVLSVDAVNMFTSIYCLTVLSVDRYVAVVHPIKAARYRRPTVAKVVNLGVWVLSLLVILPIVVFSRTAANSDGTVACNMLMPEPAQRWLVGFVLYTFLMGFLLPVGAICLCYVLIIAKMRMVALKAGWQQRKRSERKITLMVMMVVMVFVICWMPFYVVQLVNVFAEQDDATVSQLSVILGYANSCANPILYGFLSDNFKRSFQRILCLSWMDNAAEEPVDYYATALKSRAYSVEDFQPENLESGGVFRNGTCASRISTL
Sequence of Somatostatin receptor (Mus musculus) (P49660 with tags, fused parts or gaps): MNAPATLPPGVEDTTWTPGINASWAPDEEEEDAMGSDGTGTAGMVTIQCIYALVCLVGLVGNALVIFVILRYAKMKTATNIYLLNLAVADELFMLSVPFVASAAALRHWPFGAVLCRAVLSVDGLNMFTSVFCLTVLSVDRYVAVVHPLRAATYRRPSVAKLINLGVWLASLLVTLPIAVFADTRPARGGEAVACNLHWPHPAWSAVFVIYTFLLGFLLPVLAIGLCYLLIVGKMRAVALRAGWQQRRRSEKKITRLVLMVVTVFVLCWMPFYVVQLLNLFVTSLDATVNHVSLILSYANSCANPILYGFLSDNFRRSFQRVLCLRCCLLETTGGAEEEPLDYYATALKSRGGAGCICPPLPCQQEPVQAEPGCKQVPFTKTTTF
Test [4] has as its target Beta-3 adrenergic receptor (Homo sapiens) (UniProt P13945). Particulars: Compound concentration 10.0 uM.
The target of test [5] is Histamine H4 receptor (Homo sapiens) (UniProt Q9H3N8). Particulars: Compound concentration 10.0 uM.
Sequence of Histamine H4 receptor (Homo sapiens) (Q9H3N8 whole entry): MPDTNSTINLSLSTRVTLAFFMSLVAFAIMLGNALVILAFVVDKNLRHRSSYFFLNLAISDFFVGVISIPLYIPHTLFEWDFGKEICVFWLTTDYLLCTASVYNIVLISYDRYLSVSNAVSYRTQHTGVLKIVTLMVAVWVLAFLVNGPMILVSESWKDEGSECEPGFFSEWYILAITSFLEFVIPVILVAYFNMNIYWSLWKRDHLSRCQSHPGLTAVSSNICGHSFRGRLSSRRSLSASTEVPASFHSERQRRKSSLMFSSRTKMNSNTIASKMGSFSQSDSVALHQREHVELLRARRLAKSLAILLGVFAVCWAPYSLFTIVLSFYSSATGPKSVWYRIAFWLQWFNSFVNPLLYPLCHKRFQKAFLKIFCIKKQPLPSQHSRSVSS

The results in this text go back to ChEMBL document CHEMBL4800731, “Data for DCP probe JNJ-65355394” (2021).

Sequence of Histamine H1 receptor (Homo sapiens) (P35367 whole entry): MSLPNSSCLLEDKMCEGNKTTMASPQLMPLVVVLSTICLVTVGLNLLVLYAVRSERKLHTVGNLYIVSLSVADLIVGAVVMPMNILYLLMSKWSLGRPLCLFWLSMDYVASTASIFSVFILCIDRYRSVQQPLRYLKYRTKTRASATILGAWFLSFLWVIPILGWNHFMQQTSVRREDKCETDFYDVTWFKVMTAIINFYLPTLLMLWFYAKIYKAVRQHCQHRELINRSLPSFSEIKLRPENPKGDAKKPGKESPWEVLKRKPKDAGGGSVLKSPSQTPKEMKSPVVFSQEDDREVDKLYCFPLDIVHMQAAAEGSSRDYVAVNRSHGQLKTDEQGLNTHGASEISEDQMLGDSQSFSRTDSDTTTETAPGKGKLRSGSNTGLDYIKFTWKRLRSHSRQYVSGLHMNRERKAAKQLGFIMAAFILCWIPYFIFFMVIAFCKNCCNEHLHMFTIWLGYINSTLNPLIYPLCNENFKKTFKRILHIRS
Sequence of Beta-3 adrenergic receptor (Homo sapiens) (P13945 whole entry, looked up): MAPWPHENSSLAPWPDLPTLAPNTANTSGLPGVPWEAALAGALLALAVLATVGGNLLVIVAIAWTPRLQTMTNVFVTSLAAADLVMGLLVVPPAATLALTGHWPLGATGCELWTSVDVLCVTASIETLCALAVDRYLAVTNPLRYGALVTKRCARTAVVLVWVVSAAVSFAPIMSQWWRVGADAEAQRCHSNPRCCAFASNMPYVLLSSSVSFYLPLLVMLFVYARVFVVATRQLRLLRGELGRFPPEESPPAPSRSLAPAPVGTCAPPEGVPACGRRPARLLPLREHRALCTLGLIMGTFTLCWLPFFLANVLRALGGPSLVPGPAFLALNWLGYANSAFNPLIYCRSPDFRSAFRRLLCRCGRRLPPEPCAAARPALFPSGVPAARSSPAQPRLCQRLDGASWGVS
Sequence of Neuropeptide Y receptor type 1 (Homo sapiens) (P25929 whole entry): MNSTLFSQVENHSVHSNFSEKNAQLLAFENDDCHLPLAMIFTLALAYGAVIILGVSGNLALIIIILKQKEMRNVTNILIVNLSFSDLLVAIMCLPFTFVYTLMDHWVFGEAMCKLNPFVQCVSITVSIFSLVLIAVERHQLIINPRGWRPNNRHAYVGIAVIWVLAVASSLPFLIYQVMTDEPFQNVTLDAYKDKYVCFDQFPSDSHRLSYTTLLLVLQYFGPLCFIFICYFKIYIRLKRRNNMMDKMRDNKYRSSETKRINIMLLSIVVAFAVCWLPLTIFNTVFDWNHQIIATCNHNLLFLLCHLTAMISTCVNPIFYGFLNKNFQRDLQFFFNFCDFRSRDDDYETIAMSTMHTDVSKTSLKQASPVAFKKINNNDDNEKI

Consider `CC(=O)Nc1ncc(CN2CCC[C@H](Cc3cc(C)nc(C)c3)C2)s1` [JNJ-65355394], for which the effect in test [1] was -7.35%; in test [2], 5.7%; in the test listed under Rattus norvegicus, 4.9%; in test [3] it was 4.2%.
Usually inhibition stands for the relative decrease from the control value, in per cent. Consider `CC(=O)Nc1nc(CN2CCC[C@H](Cc3cc(C)nc(C)c3)C2)cs1` [JNJ-73924149], for which the inhibition in test [4] was -8.59%; in test [5], -0.6%.
